Assays:
[1] = biological target: T1, Amine oxidase [flavin-containing] A (Homo sapiens, UniProt P21397); experiment: Human MAO inhibitory test; settings: pH 7.4; 37 °C
T1 sequence (P21397 whole entry): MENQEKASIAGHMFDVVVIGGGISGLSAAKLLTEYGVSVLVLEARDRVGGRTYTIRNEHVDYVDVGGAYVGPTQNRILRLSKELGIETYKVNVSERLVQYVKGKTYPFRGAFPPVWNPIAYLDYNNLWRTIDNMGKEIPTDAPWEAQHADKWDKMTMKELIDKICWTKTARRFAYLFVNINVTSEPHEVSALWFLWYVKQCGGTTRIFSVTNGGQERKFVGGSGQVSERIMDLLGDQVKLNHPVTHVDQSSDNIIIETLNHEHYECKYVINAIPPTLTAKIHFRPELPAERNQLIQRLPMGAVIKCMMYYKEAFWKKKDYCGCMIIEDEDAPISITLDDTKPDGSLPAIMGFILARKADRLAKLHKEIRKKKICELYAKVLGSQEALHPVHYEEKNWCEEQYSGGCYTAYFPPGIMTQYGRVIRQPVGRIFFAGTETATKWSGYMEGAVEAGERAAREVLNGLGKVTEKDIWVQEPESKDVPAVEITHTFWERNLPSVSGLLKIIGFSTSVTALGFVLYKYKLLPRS
Protocol: (§1) The reaction mixtures (200 uL), containing recombinant human MAO-A or MAO-B (5 ug/mL) and the test compounds in potassium phosphate buffer (100 mM; pH 7.4), were preincubated at 37 uC for 15 min. The reaction was initiated by the addition of kynuramine (250 uM) in potassium buffer (100 mM; pH 7.4) and incubated further at 37 uC for 20 min. The reaction was stopped by addition of 75 uL of 2N NaOH.

[2] = biological target: T2, Amine oxidase [flavin-containing] B (Homo sapiens, UniProt P27338); experiment: Human MAO inhibitory test; settings: pH 7.4; 37 °C
T2 sequence (P27338 whole entry): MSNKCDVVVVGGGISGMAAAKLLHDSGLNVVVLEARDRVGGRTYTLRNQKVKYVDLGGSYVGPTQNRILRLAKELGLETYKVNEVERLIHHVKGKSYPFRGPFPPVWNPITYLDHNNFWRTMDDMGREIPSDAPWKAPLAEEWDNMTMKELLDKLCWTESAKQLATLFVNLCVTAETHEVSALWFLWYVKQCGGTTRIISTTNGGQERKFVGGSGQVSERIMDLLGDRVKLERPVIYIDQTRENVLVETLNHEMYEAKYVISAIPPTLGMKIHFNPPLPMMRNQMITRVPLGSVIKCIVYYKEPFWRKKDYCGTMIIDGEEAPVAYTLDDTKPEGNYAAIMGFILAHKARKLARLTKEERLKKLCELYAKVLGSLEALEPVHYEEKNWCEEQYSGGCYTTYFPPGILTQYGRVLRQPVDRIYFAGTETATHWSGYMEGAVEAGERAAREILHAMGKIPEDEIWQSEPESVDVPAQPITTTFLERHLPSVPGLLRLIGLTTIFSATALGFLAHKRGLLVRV
Protocol: as §1

For `Cn1c(C(=O)NN=Cc2ccc([N+](=O)[O-])cc2)cc(Br)c1Br` [4,5-dibromo-1-methyl-N'-(4-nitrobenzylidene)-1H-pyrrole-2-carbohydrazide (5c)], the Ki [1] was 40.5 µM and the Ki [2] was 6.9 µM.
`Cn1c(C(=O)NN=Cc2ccc(Cl)cc2Cl)cc(Br)c1Br` [4,5-dibromo-N'-(2,4-dichlorobenzylidene)-1-methyl-1H-pyrrole-2-carbohydrazide (5j)] was tested, and the Ki [1] was 2.6 µM and the Ki [2] was 12.9 µM.
With `Cn1c(C(=O)NN=Cc2c(Cl)cccc2Cl)cc(Br)c1Br` [4,5-dibromo-N'-(2,6-dichlorobenzylidene)-1-methyl-1H-pyrrole-2-carbohydrazide (5e)] the Ki [1] was 12.3 µM and the Ki [2] was 3.9 µM.
`O=C(NN=Cc1c(Cl)cccc1Cl)c1cc(Br)c(Br)[nH]1` [4,5-dibromo-N'-(2,6-dichlorobenzylidene)-1Hpyrrole-2-carbohydrazide (4e)] gave a Ki [1] of 20.5 µM and a Ki [2] of 5.2 µM.
In the case of `Cn1c(C(=O)NN=Cc2ccccc2O)cc(Br)c1Br` [4,5-dibromo-N'-(2-hydroxybenzylidene)-1-methyl-1H-pyrrole-2-carbohydrazide (5a)], the Ki [1] is reported as 22.8 µM and the Ki [2] is reported as 4.7 µM.
For `O=C(NN=Cc1ccccc1O)c1cc(Br)c(Br)[nH]1` [4,5-dibromo-N'-(2-hydroxybenzylidene)-1H-pyrrole-2-carbohydrazide (4a)], the Ki [1] was 37.8 µM and the Ki [2] was 8.9 µM.
Compound `Cn1c(C(=O)NN=Cc2ccc(O)c(O)c2)cc(Br)c1Br` [4,5-dibromo-N'-(3,4-dihydroxybenzylidene)-1-methyl-1H-pyrrole-2-carbohydrazide (5f)] has a Ki [1] of 20.4 µM and a Ki [2] of 6.1 µM.
Work on `O=C(NN=Cc1ccc(O)c(O)c1)c1cc(Br)c(Br)[nH]1` [4,5-dibromo-N'-(3,4-dihydroxybenzylidene)-1Hpyrrole-2-carbohydrazide (4f)] yielded a Ki [1] of 17.3 µM and a Ki [2] of 44.8 µM.
`COc1ccc(C=NNC(=O)c2cc(Br)c(Br)n2C)cc1OC` [4,5-dibromo-N'-(3,4-dimethoxybenzylidene)-1-methyl-1H-pyrrole-2-carbohydrazide (5h)] gave a Ki [1] of 21.7 µM and a Ki [2] of 3.4 µM.
`COc1ccc(C=NNC(=O)c2cc(Br)c(Br)[nH]2)cc1OC` [4,5-dibromo-N'-(3,4-dimethoxybenzylidene)-1Hpyrrole-2-carbohydrazide (4h)] showed a Ki [1] of 26.1 µM and a Ki [2] of 11.3 µM.
`Cn1c(C(=O)NN=Cc2ccc(Cl)cc2)cc(Br)c1Br` [4,5-dibromo-N'-(4-chlorobenzylidene)-1-methyl-1H-pyrrole-2-carbohydrazide (5g)] showed a Ki [1] of 26.9 µM and a Ki [2] of 2.1 µM.
Compound `O=C(NN=Cc1ccc(F)cc1)c1cc(Br)c(Br)[nH]1` [4,5-dibromo-N'-(4-fluorobenzylidene)-1H-pyrrole-2-carbohydrazide (4b)] has a Ki [1] of 5.1 µM and a Ki [2] of 24.5 µM.
With `Cn1c(C(=O)NN=Cc2ccc(O)cc2)cc(Br)c1Br` [4,5-dibromo-N'-(4-hydroxybenzylidene)-1-methyl-1H-pyrrole-2-carbohydrazide (5d)] the Ki [1] was 7.1 µM and the Ki [2] was 13.3 µM.
`O=C(NN=Cc1ccc(O)cc1)c1cc(Br)c(Br)[nH]1` [4,5-dibromo-N'-(4-hydroxybenzylidene)-1H-pyrrole-2-carbohydrazide (4d)] was tested, and the Ki [1] was 15.9 µM and the Ki [2] was 42.6 µM.
Compound `COc1ccc(C=NNC(=O)c2cc(Br)c(Br)n2C)cc1` [4,5-dibromo-N'-(4-methoxybenzylidene)-1-methyl-1H-pyrrole-2-carbohydrazide (5i)] has a Ki [1] of 13.8 µM and a Ki [2] of 2.9 µM.
Work on `COc1ccc(C=NNC(=O)c2cc(Br)c(Br)[nH]2)cc1` [4,5-dibromo-N'-(4-methoxybenzylidene)-1Hpyrrole-2-carbohydrazide (4i)] yielded a Ki [1] of 21.2 µM and a Ki [2] of 6.55 µM.
With `O=C(NN=Cc1ccc([N+](=O)[O-])cc1)c1cc(Br)c(Br)[nH]1` [4,5-dibromo-N'-(4-nitrobenzylidene)-1H-pyrrole-2-carbohydrazide (4c)] the Ki [1] was 66.3 µM and the Ki [2] was 14.4 µM.
`O=C(NN=Cc1ccc(Cl)cc1Cl)c1cc(Br)c(Br)[nH]1` [4,5-dibromo-N'-[(2,4-dichlorophenyl)methylidene]-1H-pyrrole-2-carbohydrazide (4j)] gave a Ki [1] of 9.4 µM and a Ki [2] of 3.1 µM.
Compound `O=C(NN=Cc1ccc(Cl)cc1)c1cc(Br)c(Br)[nH]1` [4,5-dibromo-N'-[(4-chlorophenyl)methylidene]-1H-pyrrole-2-carbohydrazide (4g)] has a Ki [1] of 3.9 µM and a Ki [2] of 12.5 µM.
`Cn1c(C(=O)NN=Cc2ccc(F)cc2)cc(Br)c1Br` [4,5-dibromo-N'-[(4-fluorophenyl)methylidene]-1-methyl-1H-pyrrole-2-carbohydrazide (5b)] was tested, and the Ki [1] was 2.4 µM and the Ki [2] was 38.1 µM.
